# Data: patent US6680318B2, “Piperazinomethylbenzamides as delta-opioid receptor agonists” (AstraZeneca AB, priority 1999, dated 2004)
# Structures can show the parent of a compound that is named as a salt. Where two headings read alike, the source gives them in different places.
# Experiments:
# [1] = target: Rat Brain (Rattus norvegicus, UniProt P33533); test: Rat Brain agonist activity (EC50, % EMAX); assay type: biochemical
# [2] = target: T1, HDelta (Homo sapiens, UniProt P41143); test: HDelta agonist activity (EC50, % EMAX); assay type: biochemical
# T1 construct: expressed in transfected cells; host or cells: human 293S cells (geneticin-selected)
# T1 sequence (P41143 whole entry): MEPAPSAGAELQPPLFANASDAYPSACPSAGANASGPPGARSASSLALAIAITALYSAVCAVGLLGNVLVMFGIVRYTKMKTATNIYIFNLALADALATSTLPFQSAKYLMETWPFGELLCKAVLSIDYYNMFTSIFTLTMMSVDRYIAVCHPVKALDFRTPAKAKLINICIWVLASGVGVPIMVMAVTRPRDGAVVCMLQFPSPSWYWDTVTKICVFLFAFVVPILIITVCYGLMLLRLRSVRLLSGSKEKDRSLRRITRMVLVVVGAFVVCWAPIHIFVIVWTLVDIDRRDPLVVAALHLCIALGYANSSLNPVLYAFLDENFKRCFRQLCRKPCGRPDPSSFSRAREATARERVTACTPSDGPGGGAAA
# [3] = target: T2, Mouse Brain (Mus musculus, UniProt P32300); test: Mouse Brain agonist activity (EC50, % EMAX); assay type: biochemical
# T2 construct: from tissue; host or cells: mouse brain
# T2 sequence (P32300 whole entry): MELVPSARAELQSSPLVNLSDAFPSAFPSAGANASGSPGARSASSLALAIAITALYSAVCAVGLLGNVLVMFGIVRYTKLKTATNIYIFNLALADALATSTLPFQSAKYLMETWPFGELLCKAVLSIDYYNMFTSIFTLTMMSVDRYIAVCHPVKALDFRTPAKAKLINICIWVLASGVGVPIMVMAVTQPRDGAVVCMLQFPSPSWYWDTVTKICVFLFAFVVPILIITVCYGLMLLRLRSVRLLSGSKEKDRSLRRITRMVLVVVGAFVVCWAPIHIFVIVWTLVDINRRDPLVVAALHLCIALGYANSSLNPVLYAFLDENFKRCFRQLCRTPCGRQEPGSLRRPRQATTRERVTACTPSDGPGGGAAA
# [4] = target: T3, cloned human δ receptors (HDelta) (Homo sapiens, UniProt P41143); test: Binding assay on membranes of 293S cells expressing cloned human δ receptor (HDelta)
# T3 construct: expressed in transfected cells; host or cells: human 293S cells (geneticin-selected)
# T3 sequence (P41143 whole entry): as the sequence (P41143 whole entry) above
# [5] = MLM metabolic stability (% remaining); assay type: in vitro ADME, mouse
# [6] = RLM metabolic stability (% remaining); assay type: in vitro ADME, rat
# [7] = 10000 (concentration, unit not given)
# [8] = 100000 (concentration, unit not given)
# Chain of Rat Brain (P33533 whole entry): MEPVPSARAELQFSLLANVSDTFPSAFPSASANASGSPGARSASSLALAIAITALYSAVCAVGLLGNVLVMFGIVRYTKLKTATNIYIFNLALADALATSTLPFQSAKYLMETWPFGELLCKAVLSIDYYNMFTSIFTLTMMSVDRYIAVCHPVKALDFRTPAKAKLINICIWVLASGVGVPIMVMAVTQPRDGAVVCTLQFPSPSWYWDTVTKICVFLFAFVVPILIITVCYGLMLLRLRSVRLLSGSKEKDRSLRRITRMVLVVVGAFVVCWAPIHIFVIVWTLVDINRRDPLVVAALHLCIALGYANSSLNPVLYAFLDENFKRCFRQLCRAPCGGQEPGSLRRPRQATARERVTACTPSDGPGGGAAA
SMILES,Emax [1],Emax [2],EC50 ([2]; read-out: HDelta EC50),EC50 [3],Emax [3],EC50 [2],IC50 [4],"MLM 10000 % rem. [5, 7]","MLM 100000 % rem. [5, 8]","RLM 10000 % rem. [6, 7]","RLM 100000 % rem. [6, 8]"
"CCN(CC)C(=O)c1ccc(C(c2cccc3c2OC(C)(C)C3)N2CCN(Cc3cccnc3)CC2)cc1 (stereo not shown) [Example 3, 4-{(2,2-dimethyl-2,3-dihydro-1-benzofuran-7-yl)[4-(3-pyridinylmethyl)-1-piperazinyl]methyl}-N,N-diethylbenzamide Dihydrochloride]",93%,103%,19.5 nM,–,–,–,–,–,–,–,–
"CCN(CC)C(=O)c1ccc(C(c2cccc3c2OC(C)(C)C3)N2CCN(Cc3ccccn3)CC2)cc1 (stereo not shown) [Example 4, 4-{(2,2-dimethyl-2,3-dihydro-1-benzofuran-7-yl)[4-(2-pyridinylmethyl)-1-piperazinyl]methyl}-N,N-diethylbenzamide Ditrifuroacetae]",118%,104%,–,144 nM,118%,7.38 nM,3.26 nM,44.5%,93%,42.5%,90.5%
